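Interpolation was linear, between the two tested concentrations surrounding the appropriate level; five concentrations were tested over 48 hours in 96-well plates. The concentration for 50% growth inhibition is given as GI50. TGI denotes the concentration required for complete inhibition of growth.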
Key:
Test in all cases: NCI-60 cell line screen, 48 h
[1] = system: A498 renal
[2] = system: DU-145 prostate
[3] = system: EKVX NSCLC
[4] = system: HCT-15 colon
[5] = system: MALME-3M melanoma
[6] = system: MDA-MB-231 breast
[7] = system: NCI/ADR-RES ovarian
[8] = system: OVCAR-8 ovarian
[9] = system: PC-3 prostate
[10] = system: SK-MEL-28 melanoma

For `O=C1NC(=O)C(=Cc2cn(Cc3ccccc3)c3ccccc23)C(=O)N1`, the GI50 [1] was 0.125 µM, the TGI [1] was 0.594 µM and the GI50 [2] was 17.5 µM. For the same compound, the TGI [2] was 40.4 µM, the GI50 [3] was 21.3 µM and the TGI [3] was > 63.5 µM. It also gave a GI50 [4] of 14.3 µM, a TGI [4] of 38.2 µM and a GI50 [5] of 18.1 µM. For the same compound, the TGI [5] was 45.7 µM, the GI50 [6] was 15.2 µM and the TGI [6] was 43.9 µM. The GI50 [7] was 18.4 µM, the TGI [7] was 50.3 µM and the GI50 [8] was 17.1 µM. For the same compound, the TGI [8] was 43.8 µM, the GI50 [9] was 11.4 µM and the TGI [9] was 30.8 µM. The GI50 [10] was 15 µM and the TGI [10] was 30.6 µM.
In the case of `CCC[CH2][Sn]([CH2]CCC)([CH2]CCC)/[C](=C/[Si](C)(C)c1ccccc1)c1ccc2c(c1)OCO2`, the GI50 [1] is reported as 30.5 µM, the TGI [1] is reported as 70.6 µM and the GI50 [2] is reported as 21.7 µM. For the same compound, the TGI [2] was 48.6 µM, the GI50 [3] was 15.2 µM and the TGI [3] was 50.7 µM. The GI50 [4] was 20.5 µM, the TGI [4] was 51.8 µM and the GI50 [5] was 3.2 µM. The TGI [5] was 15 µM, the GI50 [6] was 14.8 µM and the TGI [6] was 32.8 µM. The GI50 [7] was 26.2 µM, the TGI [7] was 86.3 µM and the GI50 [8] was 19.1 µM. For the same compound, the TGI [8] was 37.9 µM, the GI50 [9] was 31.4 µM and the TGI [9] was > 100 µM. The GI50 [10] was 16.2 µM and the TGI [10] was 33.4 µM.
`O=C1OCC2=C1C(c1cccc(C(F)(F)F)c1)c1cc3c(cc1N2CCO)OCCO3` (stereo not given) gave a GI50 [1] of 0.866 µM, a TGI [1] of 3.25 µM and a GI50 [2] of 1.54 µM. For the same compound, the TGI [2] was > 33.3 µM, the GI50 [3] was 1.33 µM and the TGI [3] was > 33.3 µM. The GI50 [4] was 0.967 µM, the TGI [4] was > 33.3 µM and the GI50 [5] was 2.86 µM. For the same compound, the TGI [5] was > 33.3 µM, the GI50 [6] was 1.7 µM and the TGI [6] was > 33.3 µM. The GI50 [7] was 1.11 µM, the TGI [7] was > 33.3 µM and the GI50 [8] was 1.29 µM. The TGI [8] was > 33.3 µM, the GI50 [9] was 1.24 µM and the TGI [9] was > 33.3 µM. For the same compound, the GI50 [10] was 1.71 µM and the TGI [10] was > 33.3 µM.
For `CN1CCN(C(=O)c2ccc(NC(=O)Nc3ccc(-c4nc(N5CCOCC5)c5cccn5n4)cc3)cc2)CC1`, the GI50 [1] was 0.0172 µM, the TGI [1] was 0.0664 µM and the GI50 [2] was 0.0348 µM. The TGI [2] was 12 µM, the GI50 [3] was 0.042 µM and the TGI [3] was 0.703 µM. It also gave a GI50 [4] of 0.548 µM, a TGI [4] of 12.6 µM and a GI50 [5] of 0.0295 µM. The TGI [5] was 0.194 µM, the GI50 [6] was 0.0431 µM and the TGI [6] was 11.3 µM. For the same compound, the GI50 [7] was 8.06 µM, the TGI [7] was > 81.6 µM and the GI50 [8] was 0.0486 µM. The TGI [8] was > 100 µM, the GI50 [9] was 0.0488 µM and the TGI [9] was 19.3 µM. It also gave a GI50 [10] of 0.0465 µM and a TGI [10] of 0.77 µM.
For `O=C1NC(=O)C(c2cccc(Cl)c2)=C1Nc1ccc(Cl)c(C(=O)O)c1`, the GI50 [1] was > 25 µM, the TGI [1] was > 25 µM and the GI50 [2] was > 25 µM. The TGI [2] was > 25 µM, the GI50 [3] was > 25 µM and the TGI [3] was > 25 µM. For the same compound, the GI50 [4] was > 25 µM, the TGI [4] was > 25 µM and the GI50 [5] was > 25 µM. The TGI [5] was > 25 µM, the GI50 [6] was > 25 µM and the TGI [6] was > 25 µM. The GI50 [7] was > 25 µM, the TGI [7] was > 25 µM and the GI50 [8] was > 25 µM. The TGI [8] was > 25 µM, the GI50 [9] was > 25 µM and the TGI [9] was > 25 µM. For the same compound, the GI50 [10] was > 25 µM and the TGI [10] was > 25 µM.
In the case of `Cc1nc(NS(=O)(=O)c2ccc(NCN3C(=O)c4ccccc4C3=O)cc2)oc1C`, the GI50 [1] is reported as > 100 µM, the TGI [1] is reported as > 100 µM and the GI50 [2] is reported as > 100 µM. The TGI [2] was > 100 µM, the GI50 [3] was > 100 µM and the TGI [3] was > 100 µM. For the same compound, the GI50 [4] was > 100 µM, the TGI [4] was > 100 µM and the GI50 [5] was > 100 µM. For the same compound, the TGI [5] was > 100 µM, the GI50 [6] was > 100 µM and the TGI [6] was > 100 µM. The GI50 [7] was > 100 µM, the TGI [7] was > 100 µM and the GI50 [8] was > 100 µM. For the same compound, the TGI [8] was > 100 µM, the GI50 [9] was > 100 µM and the TGI [9] was > 100 µM. For the same compound, the GI50 [10] was > 100 µM and the TGI [10] was > 100 µM.
`CCN1CCN(c2cc(C(=O)Nc3cccc(Nc4ccc5c(OC)cccc5n4)c3)cc(C(F)(F)F)c2)CC1` was tested, and the GI50 [1] was 4.94 µM, the TGI [1] was 10.5 µM and the GI50 [2] was 1.88 µM. It also gave a TGI [2] of 7.33 µM, a GI50 [3] of 3.07 µM and a TGI [3] of 9.46 µM. For the same compound, the GI50 [4] was 0.797 µM, the TGI [4] was 2.26 µM and the GI50 [5] was 0.611 µM. For the same compound, the TGI [5] was 1.33 µM, the GI50 [6] was 1.8 µM and the TGI [6] was 6.47 µM. For the same compound, the GI50 [7] was 1.29 µM, the TGI [7] was 6.69 µM and the GI50 [8] was 1.97 µM. It also gave a TGI [8] of 7.64 µM, a GI50 [9] of 0.805 µM and a TGI [9] of 2.5 µM. The GI50 [10] was 0.846 µM and the TGI [10] was 2.2 µM.
In the case of `COc1cc(S(=O)(=O)Nc2nc(-c3ccc(N4C(=O)C(C)SC4c4ccccc4O)cc3)cs2)ccc1Cl` (stereo not given), the GI50 [1] is reported as 51.3 µM, the TGI [1] is reported as > 100 µM and the GI50 [2] is reported as 42.5 µM. For the same compound, the TGI [2] was > 100 µM, the GI50 [3] was 42.8 µM and the TGI [3] was > 100 µM. The GI50 [4] was 37.3 µM, the TGI [4] was > 100 µM and the GI50 [5] was 89.2 µM. For the same compound, the TGI [5] was > 100 µM, the GI50 [6] was 32.6 µM and the TGI [6] was > 100 µM. For the same compound, the GI50 [7] was 50.9 µM, the TGI [7] was > 100 µM and the GI50 [8] was 42.2 µM. For the same compound, the TGI [8] was > 100 µM, the GI50 [9] was 30.1 µM and the TGI [9] was > 100 µM. The GI50 [10] was 39.5 µM and the TGI [10] was > 100 µM.
